Data: ChEMBL document CHEMBL1201862, “PubChem BioAssay data set” (2004)
Calls of active or inactive are those of the source.

Assays:
[1] = viability of uninfected HEp-2 cells – cell-based, HTS, cytotoxicity control for RSV inhibitor project, dose response (AID 2410); format: functional; conditions: human respiratory syncytial virus
[2] = Luminescence Cell-Based Dose Confirmation HTS to Identify Inhibitors of Platelet Dense Granule Release. [Related pubchem assays: 1663 (Primary HTS), 1678 (Summary of Project)]; format: functional
[3] = target: Luciferin 4-monooxygenase (Photinus pyralis, UniProt P08659); assay: inhibition of purified Photinus pyralis luciferase – biochemical, luminescence, dose response (AID 1891)
[4] = target: T1, Corticotropin-releasing factor receptor 2/Corticotropin-releasing factor-binding protein (Homo sapiens, UniProt P24387+Q13324); assay: activators of CRF receptor 2 with binding protein – uHTS hits, confirmation (AID 602473); format: functional; conditions: read-out: EC50_Mean
T1 sequence (Q13324 whole entry): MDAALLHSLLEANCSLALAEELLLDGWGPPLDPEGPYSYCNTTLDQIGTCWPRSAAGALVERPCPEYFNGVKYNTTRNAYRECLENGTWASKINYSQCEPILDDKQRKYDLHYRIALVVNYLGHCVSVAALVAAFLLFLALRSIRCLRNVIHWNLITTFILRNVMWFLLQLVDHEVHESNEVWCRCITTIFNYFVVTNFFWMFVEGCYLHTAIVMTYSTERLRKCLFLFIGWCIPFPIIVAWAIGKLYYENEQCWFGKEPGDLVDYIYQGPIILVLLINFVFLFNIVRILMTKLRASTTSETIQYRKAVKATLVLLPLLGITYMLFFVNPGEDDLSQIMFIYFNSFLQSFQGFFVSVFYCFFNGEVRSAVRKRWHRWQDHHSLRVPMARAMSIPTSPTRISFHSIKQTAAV
T1 sequence (P24387 whole entry): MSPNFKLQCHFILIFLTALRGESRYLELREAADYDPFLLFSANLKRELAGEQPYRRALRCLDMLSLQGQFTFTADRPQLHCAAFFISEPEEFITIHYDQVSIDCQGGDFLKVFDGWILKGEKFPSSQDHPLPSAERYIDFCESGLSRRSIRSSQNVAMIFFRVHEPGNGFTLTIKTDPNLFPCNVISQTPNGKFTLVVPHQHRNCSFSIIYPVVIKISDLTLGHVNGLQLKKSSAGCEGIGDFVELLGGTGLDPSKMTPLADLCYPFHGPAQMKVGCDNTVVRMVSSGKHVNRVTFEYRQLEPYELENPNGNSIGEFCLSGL

[5] = target: T1, Corticotropin-releasing factor receptor 2/Corticotropin-releasing factor-binding protein; assay: Dose Response confirmation of uHTS hits for small molecule antagonists of the CRF-binding protein and CRF-R2 receptor complex.; format: functional; conditions: read-out: IC50_Mean
Cytochrome P450 2D6 = Cytochrome P450 2D6 (Homo sapiens, UniProt P10635);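 note: CYP2D6 member of a cytochrome P450 panel assay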
Cytochrome P450 3A4 = Cytochrome P450 3A4 (Homo sapiens, UniProt P08684);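 note: CYP3A4 tested as one member of a cytochrome P450 panel screen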
INS1 = assay: INS-1E survival protection against cytokine death – cell-based, luminescence, retest, dose response (AID 449756); format: functional; conditions: Rattus norvegicus;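 note: cell death triggered by IL-1 beta plus TNF-alpha plus IFN-gamma mixture; protective hits raise ATP signal compared with cytokine alone wells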
Cytochrome P450 2C19 = Cytochrome P450 2C19 (Homo sapiens, UniProt P33261); assay: Cytochrome panel assay with activity outcomes. Panel member name: p450-cyp2c19 Compounds with AC50 equal or less than 10 uM are considered active; format: functional
Cytochrome P450 2C9 = Cytochrome P450 2C9 (Homo sapiens, UniProt P11712)
[6] = tested on: Streptococcus sp. 'group A'; assay: Streptococcus pyogenes SK(-)GAS viability under kanamycin – luminescence, BacTiterGlo, confirmation, counter-screen for streptokinase expression inhibitor project, dose response (AID 1900); format: functional, organism-based
Streptococcus = assay: GAS UMAA2166 growth inhibition – luminescence, BacTiterGlo, counter-screen for streptokinase expression inhibitor project, dose response (AID 1915); format: functional, organism-based;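 note: potency for reduction of bacterial viability or growth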
Streptokinase A = target: T2, Streptokinase A (Streptococcus pyogenes serotype M1, UniProt P10520); assay: viability-normalized secreted streptokinase activity reduction – plasminogen activation absorbance, OD405, dose response (AID 1914); format: functional, Streptococcus pyogenes M1 GAS;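 note: secreted streptokinase activity via plasminogen activation per viability signal from cell pellet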
T2 sequence (P10520 whole entry): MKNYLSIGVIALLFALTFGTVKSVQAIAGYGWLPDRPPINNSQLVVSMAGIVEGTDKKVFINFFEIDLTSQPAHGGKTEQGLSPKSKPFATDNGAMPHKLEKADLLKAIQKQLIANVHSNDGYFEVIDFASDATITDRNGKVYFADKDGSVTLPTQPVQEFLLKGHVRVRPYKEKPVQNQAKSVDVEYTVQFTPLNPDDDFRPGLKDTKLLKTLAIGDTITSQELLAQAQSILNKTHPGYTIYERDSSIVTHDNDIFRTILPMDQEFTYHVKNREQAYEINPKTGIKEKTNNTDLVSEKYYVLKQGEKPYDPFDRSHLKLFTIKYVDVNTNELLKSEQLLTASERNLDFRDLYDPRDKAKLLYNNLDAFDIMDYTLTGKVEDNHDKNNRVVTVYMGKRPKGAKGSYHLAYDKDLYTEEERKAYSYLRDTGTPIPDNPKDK

[7] = Luminescence Cell-Based Dose Retest to Confirm Inhibitors of Cancer Stem Cells. [Related pubchem assays (depositor defined):AID2717, AID2721]; format: functional; conditions: Homo sapiens
Cytochrome P450 1A2 = target: T3, Cytochrome P450 1A2 (Homo sapiens, UniProt P05177);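 note: PubChem cytochrome P450 panel assay, CYP1A2 panel member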
T3 sequence (P05177 whole entry): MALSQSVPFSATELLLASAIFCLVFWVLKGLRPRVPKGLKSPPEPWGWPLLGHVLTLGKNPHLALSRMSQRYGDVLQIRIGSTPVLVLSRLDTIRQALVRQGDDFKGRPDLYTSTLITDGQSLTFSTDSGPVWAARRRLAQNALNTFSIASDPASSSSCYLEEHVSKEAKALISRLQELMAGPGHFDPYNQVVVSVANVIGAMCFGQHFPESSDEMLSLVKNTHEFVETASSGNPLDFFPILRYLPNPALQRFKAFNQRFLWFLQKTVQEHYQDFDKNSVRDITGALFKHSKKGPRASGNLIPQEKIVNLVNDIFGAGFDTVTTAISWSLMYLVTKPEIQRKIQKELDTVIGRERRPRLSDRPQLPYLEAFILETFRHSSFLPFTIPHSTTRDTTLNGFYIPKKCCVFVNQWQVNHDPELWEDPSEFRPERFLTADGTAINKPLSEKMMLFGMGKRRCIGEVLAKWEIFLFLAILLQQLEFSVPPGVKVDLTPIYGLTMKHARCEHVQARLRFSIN

Chain of Cytochrome P450 3A4 (P08684 whole entry): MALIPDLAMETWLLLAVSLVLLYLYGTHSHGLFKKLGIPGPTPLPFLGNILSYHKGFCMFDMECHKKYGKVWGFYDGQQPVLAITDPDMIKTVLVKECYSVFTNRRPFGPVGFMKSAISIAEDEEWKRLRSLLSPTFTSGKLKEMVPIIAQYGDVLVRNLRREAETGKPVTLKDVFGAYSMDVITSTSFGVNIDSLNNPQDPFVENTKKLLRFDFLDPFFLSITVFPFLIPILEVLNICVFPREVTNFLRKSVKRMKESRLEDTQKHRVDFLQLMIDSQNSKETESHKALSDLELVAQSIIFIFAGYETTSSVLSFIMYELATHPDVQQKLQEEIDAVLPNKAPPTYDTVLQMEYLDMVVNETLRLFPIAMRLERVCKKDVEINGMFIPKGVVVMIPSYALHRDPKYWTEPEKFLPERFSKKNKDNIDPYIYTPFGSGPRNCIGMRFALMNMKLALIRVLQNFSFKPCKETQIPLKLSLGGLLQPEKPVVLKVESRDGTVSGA
Chain of Cytochrome P450 2C9 (P11712 whole entry): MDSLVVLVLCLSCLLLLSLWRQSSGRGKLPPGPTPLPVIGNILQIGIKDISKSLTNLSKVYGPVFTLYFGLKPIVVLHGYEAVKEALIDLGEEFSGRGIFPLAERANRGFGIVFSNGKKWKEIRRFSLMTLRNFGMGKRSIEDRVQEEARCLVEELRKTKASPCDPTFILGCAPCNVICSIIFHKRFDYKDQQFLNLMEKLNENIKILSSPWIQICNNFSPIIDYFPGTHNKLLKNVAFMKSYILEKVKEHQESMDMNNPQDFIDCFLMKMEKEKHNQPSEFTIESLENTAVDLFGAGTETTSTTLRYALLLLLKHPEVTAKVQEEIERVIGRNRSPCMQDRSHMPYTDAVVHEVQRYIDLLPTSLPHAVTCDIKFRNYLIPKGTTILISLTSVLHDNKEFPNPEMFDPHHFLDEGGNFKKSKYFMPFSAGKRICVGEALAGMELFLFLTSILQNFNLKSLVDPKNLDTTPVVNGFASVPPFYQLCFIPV
Chain of Luciferin 4-monooxygenase (P08659 whole entry): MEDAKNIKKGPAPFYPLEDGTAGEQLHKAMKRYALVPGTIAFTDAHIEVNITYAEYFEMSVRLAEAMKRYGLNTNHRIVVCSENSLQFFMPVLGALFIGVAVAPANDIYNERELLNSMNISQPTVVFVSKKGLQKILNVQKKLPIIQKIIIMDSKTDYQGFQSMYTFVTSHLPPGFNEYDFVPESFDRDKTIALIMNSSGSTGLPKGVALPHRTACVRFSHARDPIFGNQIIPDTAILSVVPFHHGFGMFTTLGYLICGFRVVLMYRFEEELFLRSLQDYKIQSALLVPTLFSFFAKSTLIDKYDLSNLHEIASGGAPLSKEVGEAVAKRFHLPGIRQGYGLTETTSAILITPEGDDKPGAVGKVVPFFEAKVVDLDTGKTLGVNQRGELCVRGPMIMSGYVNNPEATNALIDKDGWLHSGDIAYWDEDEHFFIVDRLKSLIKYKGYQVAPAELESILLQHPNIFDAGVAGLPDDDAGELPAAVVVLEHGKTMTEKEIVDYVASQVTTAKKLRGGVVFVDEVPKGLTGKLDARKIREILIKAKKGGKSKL
Chain of Cytochrome P450 2D6 (P10635 whole entry): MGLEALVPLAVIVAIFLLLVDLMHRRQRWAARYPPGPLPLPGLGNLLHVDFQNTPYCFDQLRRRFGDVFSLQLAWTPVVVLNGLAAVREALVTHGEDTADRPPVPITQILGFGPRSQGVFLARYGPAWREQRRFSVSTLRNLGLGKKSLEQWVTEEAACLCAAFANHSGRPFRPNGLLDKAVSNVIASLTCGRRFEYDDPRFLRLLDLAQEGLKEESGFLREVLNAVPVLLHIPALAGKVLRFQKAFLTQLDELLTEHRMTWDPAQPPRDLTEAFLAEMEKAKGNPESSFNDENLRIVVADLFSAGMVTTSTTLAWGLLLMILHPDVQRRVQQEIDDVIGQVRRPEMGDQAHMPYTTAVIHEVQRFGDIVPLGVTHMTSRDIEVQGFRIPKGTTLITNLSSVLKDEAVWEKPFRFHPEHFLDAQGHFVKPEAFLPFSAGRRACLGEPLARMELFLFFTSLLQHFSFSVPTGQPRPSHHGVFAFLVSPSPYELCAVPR
Chain of Cytochrome P450 2C19 (P33261 whole entry): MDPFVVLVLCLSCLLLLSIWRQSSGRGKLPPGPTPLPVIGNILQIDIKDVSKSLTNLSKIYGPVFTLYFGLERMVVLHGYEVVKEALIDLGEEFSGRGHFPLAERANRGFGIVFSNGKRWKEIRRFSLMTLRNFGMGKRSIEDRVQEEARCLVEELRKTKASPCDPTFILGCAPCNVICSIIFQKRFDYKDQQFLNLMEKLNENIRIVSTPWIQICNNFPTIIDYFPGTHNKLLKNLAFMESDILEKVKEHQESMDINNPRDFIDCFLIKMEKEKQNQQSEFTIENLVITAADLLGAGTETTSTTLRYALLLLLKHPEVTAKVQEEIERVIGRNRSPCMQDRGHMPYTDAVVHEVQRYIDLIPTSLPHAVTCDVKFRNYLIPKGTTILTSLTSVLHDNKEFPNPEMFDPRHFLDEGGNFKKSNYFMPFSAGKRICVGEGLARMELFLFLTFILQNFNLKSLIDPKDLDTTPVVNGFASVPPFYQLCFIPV

CCOC(=O)c1[nH]c(C)c(C(=O)N2CCN(c3cccc(Cl)c3)CC2)c1C
CC50 [1]: 20.9 µM (active)

O=C(CSc1nnc(-c2cccnc2)n1Cc1ccccc1)N1CCOCC1
EC50 [2]: 17.2 µM (active) | EC50 [3]: > 112 µM (not active)

O=C(c1ccccc1)c1nc2ccccc2nc1O
EC50 [4]: > 53 µM (inactive) | IC50 [5]: > 47.1 µM (inactive)

COc1ccc(CNc2ncnc3ccc(-c4ccc5c(c4)OCO5)cc23)c(OC)c1
AC50 (Cytochrome P450 2D6): 2.51 µM (active) | AC50 (Cytochrome P450 3A4): 0.794 µM (active)

Cc1cccc(NC(=O)Cn2c(/C=C/c3ccccc3)nc3ccccc32)c1
AC50 (INS1): 30.6 µM (active)

NC(=S)N/N=C/c1c(O)c(Br)cc2oc3c(c12)CCCC3
AC50 (INS1): 0.819 µM (active)

COc1ccccc1C(=O)Nc1ccc(S(=O)(=O)N2CCCCC2c2cccnc2)cc1 (configuration not stated)
CC50 [1]: 31.9 µM (active)

COc1ccccc1NC(=O)C1=C(C)Nc2nnnn2C1c1ccccc1OC (configuration not stated)
EC50 [2]: 72.3 µM (active) | EC50 [3]: > 112 µM (not active)

CP(=O)(O)C1=CCNCC1
AC50 (Cytochrome P450 3A4): 39.8 µM (inconclusive)

O=C(CSc1nc(-c2ccco2)cc(C(F)(F)F)n1)NCCCN1CCOCC1
EC50 [4]: > 53 µM (inactive) | IC50 [5]: > 47.1 µM (inactive)

Cc1cc(NC(=O)c2cc3ncc(Br)cn3n2)no1
EC50 [2]: > 112 µM (not active) | EC50 [3]: > 112 µM (not active)

COc1cccc(NC(=O)C2CCCN(S(=O)(=O)c3ccc(-n4cnnn4)cc3)C2)c1 (configuration not stated)
EC50 [4]: > 53 µM (inactive) | IC50 [5]: > 47.1 µM (inactive)

O=C(c1cccc(S(=O)(=O)N2CCOCC2)c1)N1CCN(c2ccc(F)cc2)CC1
EC50 [2]: > 112 µM (not active) | EC50 [3]: > 112 µM (not active)

CC(=O)Nc1ccc(OCC(O)CN2C(C)(C)CC(O)CC2(C)C)cc1 (configuration not stated)
EC50 [4]: > 53 µM (inactive) | IC50 [5]: > 47.1 µM (inactive)

Nc1ccc(C(=O)c2cccs2)cc1[N+](=O)[O-]
CC50 [1]: 36.8 µM (active)

CCOC(=O)CSc1nc(O)c2c(n1)-c1ccccc1CC2(C)CC (configuration not stated)
AC50 (INS1): 40.1 µM (active)

CC(=O)OCCNC(=O)Cn1cnc2c1c(=O)n(C)c(=O)n2C
EC50 [2]: > 112 µM (not active) | EC50 [3]: > 112 µM (not active)

Cn1c(=S)oc2ccccc21
EC50 [2]: > 112 µM (not active) | EC50 [3]: > 112 µM (not active)

COc1ccc(C(=O)Nc2ccc(C3CC3(Cl)Cl)cc2)cc1 (configuration not stated)
EC50 [4]: > 53 µM (inactive) | IC50 [5]: > 47.1 µM (inactive)

Cc1cc(Nc2nc3ccccc3nc2O)n(-c2ccccc2)n1
CC50 [1]: 16.6 µM (active)

O=C(COC(=O)C1CCN(S(=O)(=O)c2ccc3c(c2)OCCO3)CC1)NC1CCS(=O)(=O)C1 (configuration not stated)
EC50 [4]: > 53 µM (inactive) | IC50 [5]: > 47.1 µM (inactive)

Cc1ccc2nc(N=C(N)NC(=O)N3c4ccccc4Sc4ccccc43)nc(C)c2c1
CC50 [1]: 12.8 µM (active)

COc1ccc(-n2c(=O)cnc3cnc(N(C)C)nc32)cc1
AC50 (Cytochrome P450 3A4): 39.8 µM (inconclusive) | AC50 (Cytochrome P450 2C19; read-out: AC50): 39.8 µM (inconclusive)

COc1ccc(-c2csc(CCn3nc(C)cc3C)n2)cc1
EC50 [2]: > 112 µM (not active) | EC50 [3]: > 112 µM (not active)

Cc1nc2cnc(N3CCOCC3)nc2n(Cc2cccs2)c1=O
AC50 (Cytochrome P450 2C9): 15.8 µM (inconclusive) | AC50 (Cytochrome P450 2D6): 39.8 µM (inconclusive) | AC50 (Cytochrome P450 3A4): 7.94 µM (inconclusive)

CCCn1c(C(C)Nc2nc(-c3ccc(Cl)c([N+](=O)[O-])c3)cs2)nc2ccccc21 (configuration not stated)
CC50 [1]: 29.7 µM (active)

CCN(CC(=O)NCc1ccc(Cl)cc1)C(=O)CSc1ccc(Br)cc1
EC50 [2]: > 112 µM (not active) | EC50 [3]: 43.9 µM (active)

Cc1cc(C)c(NC(=O)CSc2ccc3nnc(CCNC(=O)c4ccccc4)n3n2)c(C)c1
EC50 [2]: > 112 µM (not active) | EC50 [3]: > 112 µM (not active)

O=[N+]([O-])c1ccc(N2CCN(C(S)=Nc3ccc(F)cc3)CC2)cc1
AC50 (INS1): 33.9 µM (active)

CN(C)C(=O)c1ccc(-c2nccc(Nc3ccc(F)cc3)n2)cc1
AC50 (Cytochrome P450 3A4): 10 µM (inconclusive)

O=C(NC(=S)Nc1ccccc1N1CCCCC1)c1ccc(F)cc1Cl
EC50 [6]: 3.75 µM (active) | EC50 (Streptococcus): > 150 µM (not active) | EC50 (Streptokinase A): 5.06 µM (active) | AC50 [7]: 1.67 µM (active)

Cc1ccccc1C(=O)c1c[nH]c(C(=O)NCc2cccs2)c1
AC50 (Cytochrome P450 2C9): 3.55 µM (inconclusive) | AC50 (Cytochrome P450 2D6): 14.1 µM (inconclusive) | AC50 (Cytochrome P450 3A4): 22.4 µM (inconclusive) | AC50 (Cytochrome P450 2C19; read-out: AC50): 25.1 µM (inconclusive)

O=C(CSc1nncn1-c1ccccc1)Nc1ccc(N2CCOCC2)cc1
AC50 (Cytochrome P450 2C9): 12.6 µM (inconclusive) | AC50 (Cytochrome P450 1A2): 39.8 µM (inconclusive) | AC50 (Cytochrome P450 3A4): 3.16 µM (inconclusive)

Cc1ccc(NC(=O)CCc2c(C)nc3ncnn3c2C)nc1
AC50 (Cytochrome P450 3A4): 15.8 µM (inconclusive) | AC50 (Cytochrome P450 2C19): inconclusive

Cc1ccc(C(=O)N/N=C\c2cccn2C)cn1
AC50 (Cytochrome P450 2C9): 89.1 µM (inconclusive) | AC50 (Cytochrome P450 3A4): 0.316 µM (inconclusive)

COc1cc(C(=O)N2CCC(NC(=O)C(Cc3ccc(C(C)C)cc3)NC(C)=O)CC2)cc(OC)c1OC (configuration not stated)
AC50 (Cytochrome P450 3A4): 17.8 µM (inconclusive) | AC50 (Cytochrome P450 2C19; read-out: AC50): 22.4 µM (inconclusive)

CCC(CO)Nc1nc2ccc(Cl)cc2c2ccccc12 (configuration not stated)
CC50 [1]: 14.5 µM (active)

COc1ccc2oc(C(=O)NCCC(C)C)c(C)c2c1
EC50 [4]: > 53 µM (inactive) | IC50 [5]: > 47.1 µM (inactive)

CCOc1ccc(NC(=O)CSc2ccc3nnc(-c4cccnc4)n3n2)cc1
EC50 [4]: > 53 µM (inactive) | IC50 [5]: > 47.1 µM (inactive)

CC(C)N1CCN(Cc2nc(-c3ccccc3)cs2)CC1CCO (configuration not stated)
EC50 [4]: > 53 µM (inactive) | IC50 [5]: > 47.1 µM (inactive)

COc1cc(N)c(Cl)cc1C(=O)OCCCN1CCCCC1
AC50 (Cytochrome P450 3A4): 25.1 µM (inconclusive)

COc1ccc(NC(=O)CN(C)C(=O)c2cccc(S(=O)(=O)N3CCN(c4ccc(F)cc4)CC3)c2)cc1
EC50 [4]: > 53 µM (inactive) | IC50 [5]: > 47.1 µM (inactive)

Cc1cc(C)cc(C(=O)N(C)[C@H](Cc2ccc(-c3ccccc3)cc2)C(=O)N[C@@H](Cc2c[nH]c3ccccc23)C(=O)O)c1
AC50 (Cytochrome P450 1A2): 39.8 µM (inconclusive) | AC50 (Cytochrome P450 3A4): 25.1 µM (inconclusive)

CCOC(=O)c1nnn(-c2nonc2N)c1CN(C)C1CCCCC1
EC50 [4]: > 53 µM (inactive) | IC50 [5]: > 47.1 µM (inactive)

Cn1c(SCC(=O)N2CCCC2)nnc1-c1cccs1
EC50 [2]: > 112 µM (not active) | EC50 [3]: > 112 µM (not active)
